In US11279714B2, “Anti-infective compounds” (priority 2014, dated 2022):
In brackets after ≈: the same amount, converted by molar mass.

What was measured:
[1] = tested on: Raw 264.7 cells infected with H37Rv-GFP; assay: microbe, parasite or virus in culture; type: cell-based, M. tuberculosis; details: for MIC50: Mycobacterium tuberculosis, H37RV, 120 h, read-out: QIM (MIC50)
[2] = tested on: M. tuberculosis H37Rv expressing the green fluorescent protein (H37Rv-GFP); assay: microbe, parasite or virus in culture; type: cell-based; details: Mycobacterium tuberculosis, H37RV, 120 h; read-out: QUM (MIC50)

Row | Compound | MIC50 [1] [µM] | MIC50 [2] [µM] | QIM (MIC50, uM) [1]
1 | CN(C)C(=O)CC1CCN(c2nc3sc(C(=O)Nc4ccc(-c5ccc(F)nc5)cc4)cc3s2)CC1 [Compound 351] | < 1 | < 1 | 
2 | Cc1ccc(-c2ccc(NC(=O)c3cc4sc(N(C)C)nc4s3)cc2)cn1 [Compound 240] | < 1 | > 20 | 
3 | Cc1nnc(-c2ccc(NC(=O)c3cc4sc(N5CCC(C(=O)N(C)C)CC5)nc4s3)cc2)o1 [Compound 184] | > 20 | > 20 | 
4 | CN(C)C(=O)C1CCN(c2nc3sc(C(=O)Nc4ccc(-c5ccc(F)cc5)nc4)cc3s2)CC1 [Compound 231] | < 1 | < 1 | 
5 | O=C(Nc1ccc(N2CCC(Oc3ccc(F)cc3)CC2)cc1)c1cc2sc(NCCN3CCOCC3)nc2s1 [Compound 295] | > 20 | > 20 | 
6 | CCc1ccc(NC(=O)c2cc3nc(N4CCCCC4)sc3s2)cc1 [Compound 12] | > 20 | > 20 | 
7 | Cc1ccc(-c2ccc(NC(=O)c3cc4sc(N5CCC(C(=O)N(C)C)CC5)nc4s3)cc2)cn1 [Compound 204] | < 1 | < 1 | 
8 | CN(CCO)c1nc2sc(C(=O)Nc3ccc4oc(CCc5ccc(F)cc5)nc4c3)cc2s1 [Compound 252] | < 1 | 1 to 20 (≈ 0.497 to 9.93 µg/mL) | 
9 | O=C(Nc1ccc(F)cc1)c1cc2sc(N3CCC(C(O)c4ccc(Cl)cc4)CC3)nc2s1 (stereo not shown) [Compound 247] | < 1 | 1 to 20 (≈ 0.502 to 10 µg/mL) | 
10 | COc1ccc(-c2ccc(NC(=O)c3cc4sc(NCCN5CCOCC5)nc4s3)cc2)cn1 [Compound 292] | < 1 | 1 to 20 (≈ 0.496 to 9.91 µg/mL) | 
11 | CC1CCN(c2ccc(NC(=O)c3cc4sc(NCCOc5ccc(Cl)cc5)nc4s3)cc2)CC1 [Compound 347] | > 20 | > 20 | 
12 | O=C(Nc1ccc(-c2ccc(F)cn2)cc1)c1cc2sc(NCCN3CCOCC3)nc2s1 [Compound 293] | < 1 |  | 
13 | O=C(Nc1ccc(F)cc1)c1cc2sc(NC3CCNCC3)nc2s1 [Compound 312] | > 20 | > 20 | 
14 | Cc1nc2cc(NC(=O)c3cc4sc(N5CCC(CC(=O)N(C)C)C5)nc4s3)ccc2o1 (stereo not shown) [Compound 308] | < 1 | < 1 | 
15 | Cc1nc2cc(NC(=O)c3cc4sc(NCCC5CCOCC5)nc4s3)ccc2o1 [Compound 333] | < 1 | 1 to 20 (≈ 0.443 to 8.85 µg/mL) | 
16 | Cc1nc2cc(NC(=O)c3cc4sc(N5CC[C@@H](C(=O)Nc6ccc7nc(C)oc7c6)C5)nc4s3)ccc2o1 [Compound 222] | < 1 | 1 to 20 (≈ 0.559 to 11.2 µg/mL) | 
17 | COc1ccc(NC(=O)c2cc3nc(N4CCCCC4)sc3s2)cc1 [Compound 2] | > 20 | > 20 | 
18 | CN(CCO)c1nc2sc(C(=O)Nc3ccc4oc(Cc5ccc(F)cc5)nc4c3)cc2s1 [Compound 251] | < 1 | 1 to 20 (≈ 0.483 to 9.65 µg/mL) | 
19 | CN(C)c1nc2sc(C(=O)Nc3ccc4oc(-c5ccc(F)cc5)nc4c3)cc2s1 [Compound 210] | > 20 | > 20 | 
20 | CN(CCO)c1nc2sc(C(=O)Nc3ccc(-c4n[nH]cc4Cl)cc3)cc2s1 [Compound 281] | 1 to 20 (≈ 0.434 to 8.68 µg/mL) |  | 
21 | Cc1nc2cc(NC(=O)c3cc4sc(NCCN5CCCCC5)nc4s3)ccc2o1 [Compound 297] | 1 to 20 (≈ 0.442 to 8.83 µg/mL) | > 20 | 
22 | COc1ccc(NC(=O)c2cc3sc(N4CCNCC4)nc3s2)cc1 [Compound 92] | 1 to 20 (≈ 0.374 to 7.49 µg/mL) | 1 to 20 (≈ 0.374 to 7.49 µg/mL) | 
23 | O=C(Nc1ccc(F)cc1)c1cc2sc(N3CCC(Oc4ccc(Cl)cc4)CC3)nc2s1 [Compound 235] | < 1 | > 20 | 
24 | O=C(Nc1ccc(F)cc1)c1cc2sc(N3CCC(C(=O)c4ccc(Cl)cc4)CC3)nc2s1 [Compound 241] | < 1 | > 20 | 

Row | Compound | MIC50 [1] [µM] | MIC50 [2] [µM] | QIM (MIC50, uM) [1]
25 | Cc1nc2cc(NC(=O)c3cc4sc(N5CCC(C(O)c6ccc(Cl)cc6)CC5)nc4s3)ccc2o1 (stereo not shown) [Compound 206] | < 1 | > 20 | 
26 | Cc1nc2cc(CNC(=O)c3cc4sc(N5CCOCC5)nc4s3)ccc2o1 [Compound 229] | 1 to 20 (≈ 0.415 to 8.29 µg/mL) | > 20 | 
27 | CN1CCC(Nc2nc3sc(C(=O)Nc4ccc(F)cc4)cc3s2)CC1 [Compound 313] | 1 to 20 (≈ 0.391 to 7.81 µg/mL) | > 20 | 
28 | COc1ccc(Cn2cc(F)c(-c3ccc(NC(=O)c4cc5sc(N6CCOCC6)nc5s4)cc3)n2)cc1 [Compound 158] | < 1 | 1 to 20 (≈ 0.55 to 11 µg/mL) | 
29 | O=C(Nc1ccc(CN2CCN(c3ccc(F)cc3)CC2)cc1)c1cc2sc(N3CCOCC3)nc2s1 [Compound 211] | < 1 | < 1 | 
30 | Cn1ccc(-c2ccc(NC(=O)c3cc4sc(N5CCNCC5)nc4s3)cc2)n1 [Compound 343] | < 1 | 1 to 20 (≈ 0.425 to 8.49 µg/mL) | 
31 | COc1ccc(NC(=O)c2cc3sc(N4CCC(CO)CC4)nc3s2)cc1 [Compound 120] | < 1 | < 1 | 
32 | CC(C)(C)OC(=O)N1CCN(c2nc3sc(C(=O)Nc4ccc(-c5ccc(F)cn5)cc4)cc3s2)CC1 [Compound 306] | < 1 | > 20 | 
33 | Cc1nc2cc(NC(=O)c3cc4sc(N(C)CCOC(C)C)nc4s3)ccc2o1 [Compound 255] | > 20 |  | 
34 | C#CCOc1ccc(-c2ccc(NC(=O)c3cc4sc(NCCN5CCOCC5)nc4s3)cc2)cc1 [Compound 359] | < 1 | 1 to 20 (≈ 0.519 to 10.4 µg/mL) | 
35 | Cc1nc2cc(NC(=O)c3cc4sc(NC5CCOCC5)nc4s3)ccc2o1 [Compound 299] | < 1 | < 1 | 
36 | COc1ccc(CNc2nc3sc(C(=O)Nc4ccc5oc(C)nc5c4)cc3s2)cc1 [Compound 239] | < 1 | 1 to 20 (≈ 0.451 to 9.01 µg/mL) | 
37 | CN(C)C(=O)C1CCN(c2nc3sc(C(=O)Nc4ccc(-c5ccc(F)cn5)cc4)cc3s2)CC1 [Compound 268] | < 1 |  | 
38 | COc1ccc(NC(=O)c2cc3sc(N4CCCCC4)nc3s2)c(OC)c1OC [Compound 300] | > 20 |  | 
39 | Cc1nc2cc(NC(=O)c3sc4nc(N5CCOCC5)sc4c3N)ccc2o1 [Compound 230] | > 20 | > 20 | 
40 | CCN(CCOC)c1nc2sc(C(=O)Nc3ccc4oc(C)nc4c3)cc2s1 [Compound 269] | > 20 | > 20 | 
41 | CCN(CC)c1nc2sc(C(=O)Nc3ccc(OC)cc3)cc2s1 [Compound 287] | < 1 | < 1 | 
42 | CN(C)C(=O)C1CCN(c2nc3sc(C(=O)Nc4ccc(-c5ccc(F)cn5)cc4)cc3s2)CC1 [Compound 284] |  | < 1 | 
43 | Cc1nc2cc(NC(=O)c3cc4sc(N5CC[C@H](C(=O)N(C)C)C5)nc4s3)ccc2o1 [Compound 215] | < 1 | < 1 | 
44 | Cc1nc2cc(NC(=O)c3cc4sc(N(C)CCN5CCC5)nc4s3)ccc2o1 [Compound 257] | > 20 |  | 
45 | Cc1nc2cc(NC(=O)c3cc4sc(N5CCC(Oc6ccc(Cl)cc6)CC5)nc4s3)ccc2o1 [Compound 207] | < 1 | 1 to 20 (≈ 0.525 to 10.5 µg/mL) | 
46 | Cc1ccc(-c2ccc(NC(=O)c3cc4sc(N5CCNCC5)nc4s3)cc2)nc1 [Compound 346] | < 1 | 1 to 20 (≈ 0.436 to 8.71 µg/mL) | 
47 | O=C(Nc1ccc(F)cc1)c1cc2sc(NC3CCCNC3)nc2s1 (stereo not shown) [Compound 310] | > 20 | > 20 | 
48 | COc1ccc(CN2CCN(c3nc4sc(C(=O)Nc5ccc(OC)cc5)cc4s3)CC2)cc1 [Compound 91] | < 1 | > 20 | 

Row | Compound | MIC50 [1] [µM] | MIC50 [2] [µM] | QIM (MIC50, uM) [1]
49 | O=C(Nc1ccc(F)cc1)c1cc2sc(OC3CCCCC3)nc2s1 [Compound 334] | < 1 | 1 to 20 (≈ 0.376 to 7.53 µg/mL) | 
50 | COCCN(C)c1nc2sc(C(=O)Nc3ccc(-c4ccc(C)cn4)cc3)cc2s1 [Compound 262] | < 1 | < 1 | 
51 | COC(=O)C1CCN(C(=O)c2cc3nc(N4CCCCC4)sc3s2)CC1 [Compound 24] | > 20 | 1 to 20 (≈ 0.394 to 7.87 µg/mL) | 
52 | Cc1nc2cc(NC(=O)c3cc4sc(N5CCC(N)CC5)nc4s3)ccc2o1 [Compound 234] | < 1 | 1 to 20 (≈ 0.414 to 8.27 µg/mL) | 
53 | Cc1nc2cc(NC(=O)c3cc4sc(NC5CCN(C)CC5)nc4s3)ccc2o1 [Compound 356] |  | > 20 | 
54 | CN(C)C(=O)C1CCN(c2nc3sc(C(=O)Nc4ccc(-c5n[nH]cc5Cl)cc4)cc3s2)CC1 [Compound 280] | > 20 |  | 
55 | O=C(Nc1ccc(F)cc1)c1cc2sc(N3CCN4CCCC4C3)nc2s1 (stereo not shown) [Compound 322] |  | 1 to 20 (≈ 0.403 to 8.05 µg/mL) | 
56 | CN(C)C(=O)C1CCN(CCNc2nc3sc(C(=O)Nc4ccc(-c5ccc(F)cn5)cc4)cc3s2)CC1 [Compound 355] |  | 1 to 20 (≈ 0.553 to 11.1 µg/mL) | 
57 | Cc1nc2cc(NC(=O)c3cc4sc(N(C)CCN(C)C)nc4s3)ccc2o1 [Compound 253] | 1 to 20 (≈ 0.416 to 8.31 µg/mL) |  | 
58 | Cc1nc2cc(NC(=O)c3cc4sc(N(C)CCOc5ccccc5)nc4s3)ccc2o1 [Compound 256] | < 1 |  | 
59 | Cc1nc2cc(NC(=O)c3cc4sc(NC5CCN(Cc6ccc(F)cc6)CC5)nc4s3)ccc2o1 [Compound 357] |  | 1 to 20 (≈ 0.522 to 10.4 µg/mL) | 
60 | CN(C)C(=O)C1CCN(c2nc3sc(C(=O)Nc4ccc(CN5CCOCC5)cc4)cc3s2)CC1 [Compound 353] |  | 1 to 20 (≈ 0.514 to 10.3 µg/mL) | 
61 | CN(C)C(=O)C1CCN(c2nc3sc(C(=O)Nc4ccc(-c5ccc(F)cc5)cn4)cc3s2)CC1.CS(=O)(=O)O [Compound 283] |  |  | +++ (+++ indicates <1 uM)
62 | CN(C)C(=O)C1CCN(c2nc3sc(C(=O)Nc4ccc(-c5ccc(F)cc5)nc4)cc3s2)CC1.Cl [Compound 259] |  |  | +++ (+++ indicates <1 uM)
63 | CN(C)C(=O)C1CCN(c2nc3sc(C(=O)Nc4ccc(N5CCOCC5)cc4)cc3s2)CC1 [Compound 352] |  | < 1 | 
64 | N#Cc1ccc(NC(=O)c2cc3sc(NCCN4CCOCC4)nc3s2)cc1 [Compound 303] | > 20 |  | 
65 | CN(CCO)c1nc2sc(C(=O)Nc3ccc(-c4nn(C)cc4Cl)cc3)cc2s1 [Compound 279] | 1 to 20 (≈ 0.448 to 8.96 µg/mL) |  | 
66 | COCCCN(C)c1nc2sc(C(=O)Nc3ccc4oc(C)nc4c3)cc2s1 [Compound 254] | < 1 |  | 
67 | CN1CCCC(Nc2nc3sc(C(=O)Nc4ccc(-c5ccc(F)nc5)cc4)cc3s2)C1 (stereo not shown) [Compound 354] |  | 1 to 20 (≈ 0.468 to 9.35 µg/mL) | 
68 | COc1ccc(NC(=O)c2cc3sc(N4CCCCC4)nc3s2)c(OC)c1 [Compound 286] | > 20 |  | 
69 | Cc1nc2cc(NC(=O)c3cc4sc(N(C)CCC(=O)N(C)C)nc4s3)ccc2o1 [Compound 264] | 1 to 20 (≈ 0.444 to 8.87 µg/mL) |  | 
70 | COc1ccc(NC(=O)c2cc3sc(N4CCCCC4)nc3s2)cc1OC [Compound 285] | < 1 |  | 
